Source: ChEMBL document CHEMBL1909046, “DrugMatrix in vitro pharmacology data”

Experiments:
[1] = DRUGMATRIX: Phosphodiesterase PDE3 enzyme inhibition (substrate: [3H]cAMP + cAMP); assay type: tissue-based, Homo sapiens; settings: platelet; Not Active = under 50% inhibition at 10 µM
[2] = DRUGMATRIX: Nicotinic Acetylcholine radioligand binding (ligand: [125I] Epibatidine); assay type: cell membranes, Membrane; settings: imr-32; Not Active = under 50% inhibition at 10 µM
[3] = molecular target: T1, Alpha-1D adrenergic receptor (Homo sapiens, UniProt P25100); assay type: cell membranes, HEK293, Membrane; settings: hek293; also: in other assays of this panel Not Active means under 50% inhibition at 10 µM
T1 sequence (P25100 whole entry): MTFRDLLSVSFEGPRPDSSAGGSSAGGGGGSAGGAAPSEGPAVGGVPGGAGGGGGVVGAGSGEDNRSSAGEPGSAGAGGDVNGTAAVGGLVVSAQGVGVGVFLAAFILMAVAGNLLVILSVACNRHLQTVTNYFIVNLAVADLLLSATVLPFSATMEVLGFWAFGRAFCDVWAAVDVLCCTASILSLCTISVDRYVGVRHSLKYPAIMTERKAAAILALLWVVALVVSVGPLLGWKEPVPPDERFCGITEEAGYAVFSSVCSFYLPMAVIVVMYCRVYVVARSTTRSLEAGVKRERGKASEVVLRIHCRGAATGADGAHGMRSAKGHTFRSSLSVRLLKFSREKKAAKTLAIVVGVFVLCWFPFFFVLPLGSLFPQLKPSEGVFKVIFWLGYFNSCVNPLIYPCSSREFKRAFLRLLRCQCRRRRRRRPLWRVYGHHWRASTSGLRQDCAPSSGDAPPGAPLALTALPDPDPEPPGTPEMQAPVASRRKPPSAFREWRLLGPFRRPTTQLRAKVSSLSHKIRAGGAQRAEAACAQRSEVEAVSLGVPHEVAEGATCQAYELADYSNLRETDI

[4] = DRUGMATRIX: Serotonin (5-Hydroxytryptamine) 5-HT3 radioligand binding (ligand: [3H] GR-65630); assay type: cell membranes, Membrane; settings: hek293; Not Active = under 50% inhibition at 10 µM
[5] = molecular target: T2, B2 bradykinin receptor (Homo sapiens, UniProt P30411); assay type: cell membranes, Membrane; settings: chem-1; also: in other assays of this panel Not Active means under 50% inhibition at 10 µM
T2 sequence (P30411 whole entry): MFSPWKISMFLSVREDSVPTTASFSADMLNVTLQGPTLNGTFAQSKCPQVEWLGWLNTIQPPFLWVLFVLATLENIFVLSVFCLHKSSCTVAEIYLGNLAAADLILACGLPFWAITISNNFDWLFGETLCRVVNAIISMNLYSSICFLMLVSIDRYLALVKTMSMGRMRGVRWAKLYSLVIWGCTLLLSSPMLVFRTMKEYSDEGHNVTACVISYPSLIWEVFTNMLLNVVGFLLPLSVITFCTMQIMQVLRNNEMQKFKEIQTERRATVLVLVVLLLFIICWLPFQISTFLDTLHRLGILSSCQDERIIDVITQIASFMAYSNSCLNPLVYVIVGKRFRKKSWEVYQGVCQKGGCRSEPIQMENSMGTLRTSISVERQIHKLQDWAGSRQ

[6] = DRUGMATRIX: Purinergic P2X radioligand binding (ligand: [3H] alpha, beta-Methylene-ATP); assay type: cell membranes, Oryctolagus cuniculus, New Zealand albino, Urinary bladder, Membrane; settings: Not Active = under 50% inhibition at 10 µM
[7] = molecular target: Vasopressin V1a receptor (Homo sapiens, UniProt P37288); assay type: cell membranes, Membrane; settings: hek293; also: in other assays of this panel Not Active means under 50% inhibition at 10 µM
Vasopressin V1a receptor, sequence (P37288 whole entry): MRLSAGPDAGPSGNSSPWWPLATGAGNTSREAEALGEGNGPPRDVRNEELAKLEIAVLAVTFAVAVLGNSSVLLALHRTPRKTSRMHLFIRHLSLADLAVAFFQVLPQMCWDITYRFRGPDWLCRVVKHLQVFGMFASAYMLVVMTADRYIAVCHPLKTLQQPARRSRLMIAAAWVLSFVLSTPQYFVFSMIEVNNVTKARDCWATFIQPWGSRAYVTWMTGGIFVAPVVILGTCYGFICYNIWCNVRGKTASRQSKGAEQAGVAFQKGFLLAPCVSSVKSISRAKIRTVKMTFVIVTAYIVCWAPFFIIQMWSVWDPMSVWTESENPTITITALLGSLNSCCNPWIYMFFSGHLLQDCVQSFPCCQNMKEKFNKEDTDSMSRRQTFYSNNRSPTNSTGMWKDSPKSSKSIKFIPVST

[8] = molecular target: Cytochrome P450 2C19 (Homo sapiens, UniProt P33261); settings: bti-tn-5b1-4; also: in other assays of this panel Not Active means under 50% inhibition at 10 µM
Cytochrome P450 2C19, sequence (P33261 whole entry): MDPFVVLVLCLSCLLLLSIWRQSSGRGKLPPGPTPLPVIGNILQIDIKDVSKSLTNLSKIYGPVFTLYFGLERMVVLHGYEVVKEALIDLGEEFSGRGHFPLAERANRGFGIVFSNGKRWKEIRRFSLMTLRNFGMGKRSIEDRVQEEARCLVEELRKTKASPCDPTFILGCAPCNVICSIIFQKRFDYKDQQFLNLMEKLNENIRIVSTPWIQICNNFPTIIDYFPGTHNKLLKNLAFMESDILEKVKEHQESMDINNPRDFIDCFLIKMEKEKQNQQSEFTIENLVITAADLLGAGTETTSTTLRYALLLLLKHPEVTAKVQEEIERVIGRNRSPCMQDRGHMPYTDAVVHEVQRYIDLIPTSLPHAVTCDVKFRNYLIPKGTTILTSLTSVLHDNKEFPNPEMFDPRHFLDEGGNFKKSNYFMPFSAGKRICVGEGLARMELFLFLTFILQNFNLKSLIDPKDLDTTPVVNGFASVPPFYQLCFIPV

COc1ccccc1C(=O)N1CCC(Cc2ccccc2)CC1
Not Active: IC50 [1] | Ki [1] | IC50 [2] | Ki [2] | IC50 [3] | IC50 [4] | Ki [4] | IC50 [5] | IC50 [6] | Ki [6] | IC50 [7]

Cc1ccccc1C(=O)N1CCC(Cc2ccccc2)CC1
Not Active: IC50 [1] | Ki [1] | IC50 [2] | Ki [2] | IC50 [3] | IC50 [4] | Ki [4] | IC50 [5] | IC50 [6] | Ki [6] | IC50 [7]

C[C@](O)(CS(=O)(=O)c1ccc(F)cc1)C(=O)Nc1ccc(C#N)c(C(F)(F)F)c1 [(R)-BICALUTAMIDE]
Not Active: IC50 [1] | Ki [1] | IC50 [2] | Ki [2] | IC50 [3] | IC50 [4] | Ki [4] | IC50 [5] | IC50 [6] | Ki [6] | IC50 [7]

O=C1CC2(CCCC2)CC(=O)N1CCCCN1CCN(c2ncccn2)CC1 [BUSPIRONE]
Not Active: IC50 [1] | Ki [1] | IC50 [8] | Ki [8] | IC50 [2] | Ki [2] | IC50 [4] | Ki [4] | IC50 [5] | IC50 [6] | Ki [6] | IC50 [7]

O=NN(CCCl)C(=O)NCCCl [CARMUSTINE]
Not Active: IC50 [1] | Ki [1] | IC50 [2] | Ki [2] | IC50 [3] | IC50 [4] | Ki [4] | IC50 [5] | IC50 [6] | Ki [6] | IC50 [7]

CC1=C(C(=O)O)N2C(=O)[C@@H](NC(=O)[C@H](N)c3ccccc3)[C@H]2SC1 [CEPHALEXIN ANHYDROUS]
Not Active: IC50 [1] | Ki [1] | IC50 [2] | Ki [2] | IC50 [3] | IC50 [4] | Ki [4] | IC50 [5] | IC50 [6] | Ki [6] | IC50 [7]

O=C(N[C@H](CO)[C@H](O)c1ccc([N+](=O)[O-])cc1)C(Cl)Cl [CHLORAMPHENICOL]
Not Active: IC50 [1] | Ki [1] | IC50 [2] | Ki [2] | IC50 [3] | IC50 [4] | Ki [4] | IC50 [5] | IC50 [6] | Ki [6] | IC50 [7]

CCOC(=O)C(C)(C)Oc1ccc(Cl)cc1 [CLOFIBRATE]
Not Active: IC50 [1] | Ki [1] | IC50 [2] | Ki [2] | IC50 [3] | IC50 [4] | Ki [4] | IC50 [5] | IC50 [6] | Ki [6] | IC50 [7]

C[C@@H]1C[C@@H]([C@H](O)CC2CC(=O)NC(=O)C2)C(=O)[C@@H](C)C1 [CYCLOHEXIMIDE]
Not Active: IC50 [1] | Ki [1] | IC50 [2] | Ki [2] | IC50 [3] | IC50 [4] | Ki [4] | IC50 [5] | IC50 [6] | Ki [6] | IC50 [7]

C/C=C/C[C@@H](C)[C@@H](O)[C@H]1C(=O)N[C@@H](CC)C(=O)N(C)CC(=O)N(C)[C@@H](CC(C)C)C(=O)N[C@@H](C(C)C)C(=O)N(C)[C@@H](CC(C)C)C(=O)N[C@@H](C)C(=O)N[C@H](C)C(=O)N(C)[C@@H](CC(C)C)C(=O)N(C)[C@@H](CC(C)C)C(=O)N(C)[C@@H](C(C)C)C(=O)N1C [CYCLOSPORINE]
Not Active: IC50 [1] | Ki [1] | IC50 [2] | Ki [2] | IC50 [3] | IC50 [4] | Ki [4] | IC50 [5] | IC50 [6] | Ki [6] | IC50 [7]

NC(=O)NO [HYDROXYUREA]
Not Active: IC50 [1] | Ki [1] | IC50 [2] | Ki [2] | IC50 [3] | IC50 [4] | Ki [4] | IC50 [5] | IC50 [6] | Ki [6] | IC50 [7]

COc1ccc2cc([C@H](C)C(=O)O)ccc2c1 [NAPROXEN]
Not Active: IC50 [2] | Ki [2] | IC50 [3] | IC50 [4] | Ki [4] | IC50 [5] | IC50 [6] | Ki [6] | IC50 [7]

CCN[C@@H]1C[C@H](N)[C@@H](O[C@H]2OC(CN)=CC[C@H]2N)[C@H](O)[C@H]1O[C@H]1OC[C@](C)(O)[C@H](NC)[C@H]1O [NETILMICIN]
Not Active: IC50 [1] | Ki [1] | IC50 [2] | Ki [2] | IC50 [3] | IC50 [4] | Ki [4] | IC50 [5] | IC50 [6] | Ki [6] | IC50 [7]

COC(=O)C1=C(C)NC(C)=C(C(=O)OCC(C)C)C1c1ccccc1[N+](=O)[O-] (centres undefined) [NISOLDIPINE]
Not Active: IC50 [1] | Ki [1] | IC50 [2] | Ki [2] | IC50 [3] | IC50 [4] | Ki [4] | IC50 [5] | IC50 [6] | Ki [6] | IC50 [7]

CCOC(=O)C1=C(C)NC(C)=C(C(=O)OC)C1c1cccc([N+](=O)[O-])c1 (centres undefined) [NITRENDIPINE]
Not Active: IC50 [1] | Ki [1] | IC50 [2] | Ki [2] | IC50 [3] | IC50 [4] | Ki [4] | IC50 [5] | IC50 [6] | Ki [6] | IC50 [7]
